# PubChem BioAssay (NCI)
#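 Following 48 hours of exposure in 96-well plates, responses at five concentrations were used to interpolate endpoints linearly. GI50 = concentration required for 50% inhibition of growth. The concentration for full growth arrest is given as TGI.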
# Legend:
# Test in all cases: inhibition of tumour cell growth, NCI panel, 48 h
# [1] = tested on: 786-0 renal
# [2] = tested on: A498 renal
# [3] = tested on: A549 NSCLC
# [4] = tested on: ACHN renal
# [5] = tested on: BT-549 breast
# [6] = tested on: CAKI-1 renal
# [7] = tested on: COLO 205 colon
# [8] = tested on: DU-145 prostate
# [9] = tested on: EKVX NSCLC
# [10] = tested on: HCC-2998 colon
# [11] = tested on: HCT-116 colon
# [12] = tested on: HCT-15 colon
# [13] = tested on: HOP-62 NSCLC
# [14] = tested on: HOP-92 NSCLC
# [15] = tested on: HS 578T breast
# [16] = tested on: HT29 colon
# [17] = tested on: KM12 colon
# [18] = tested on: M14 melanoma
# [19] = tested on: MALME-3M melanoma
# [20] = tested on: MCF7 breast
# [21] = tested on: MDA-MB-231 breast
# [22] = tested on: MDA-MB-435
# [23] = tested on: NCI-H226 lung
# [24] = tested on: NCI-H23 lung
# [25] = tested on: NCI-H460 lung
# [26] = tested on: NCI-H522 lung
# [27] = tested on: NCI/ADR-RES ovarian
# [28] = tested on: OVCAR-3 ovarian
# [29] = tested on: OVCAR-4 ovarian
# [30] = tested on: OVCAR-5 ovarian
# [31] = tested on: OVCAR-8 ovarian
# [32] = tested on: PC-3 prostate
# [33] = tested on: RXF 393 renal
# [34] = tested on: SF-268 CNS
# [35] = tested on: SF-295 CNS
# [36] = tested on: SF-539 CNS
# [37] = tested on: SK-MEL-2 melanoma
# [38] = tested on: SK-MEL-5 melanoma
# [39] = tested on: SK-OV-3 ovarian
# [40] = tested on: SNB-19 CNS
# [41] = tested on: SNB-75 CNS
# [42] = tested on: SR leukemia
# [43] = tested on: SW-620 colon
# [44] = tested on: T-47D breast
# [45] = tested on: TK-10 renal
# [46] = tested on: U251 CNS
# [47] = tested on: UACC-257 melanoma
# [48] = tested on: UACC-62 melanoma
# [49] = tested on: UO-31 renal
# [50] = tested on: CCRF-CEM leukemia
# [51] = tested on: IGROV1 ovarian
# [52] = tested on: K-562 leukemia
# [53] = tested on: LOX IMVI melanoma
# [54] = tested on: MOLT-4 leukemia
# [55] = tested on: RPMI-8226 leukemia
# [56] = tested on: SK-MEL-28 melanoma
# [57] = tested on: SN12C renal
smiles,measurement,setting,value
CCCCCCCCCCCCCCCCOP(=O)([O-])OCC[N+](C)(C)C1CC(C)(C)N(O)C(C)(C)C1,TGI,[1],> 100 µM
same,TGI,[2],> 100 µM
same,TGI,[3],> 100 µM
same,TGI,[4],> 100 µM
same,TGI,[5],> 100 µM
same,TGI,[6],> 100 µM
same,TGI,[7],> 100 µM
same,TGI,[8],> 100 µM
same,TGI,[9],> 100 µM
same,TGI,[10],> 100 µM
same,TGI,[11],> 100 µM
same,TGI,[12],> 100 µM
same,TGI,[13],> 100 µM
same,TGI,[14],> 100 µM
same,TGI,[15],> 100 µM
same,TGI,[16],> 100 µM
same,TGI,[17],> 100 µM
same,TGI,[18],> 100 µM
same,TGI,[19],> 100 µM
same,TGI,[20],> 100 µM
same,TGI,[21],> 100 µM
same,TGI,[22],> 100 µM
same,TGI,[23],> 100 µM
same,TGI,[24],> 100 µM
same,TGI,[25],> 100 µM
same,TGI,[26],> 100 µM
same,TGI,[27],> 100 µM
same,TGI,[28],> 100 µM
same,TGI,[29],> 100 µM
same,TGI,[30],> 100 µM
same,TGI,[31],> 100 µM
same,TGI,[32],> 100 µM
same,TGI,[33],> 100 µM
same,TGI,[34],> 100 µM
same,TGI,[35],> 100 µM
same,TGI,[36],> 100 µM
same,TGI,[37],> 100 µM
same,TGI,[38],> 100 µM
same,TGI,[39],> 100 µM
same,TGI,[40],> 100 µM
same,TGI,[41],> 100 µM
same,TGI,[42],> 100 µM
same,TGI,[43],> 100 µM
same,TGI,[44],> 100 µM
same,TGI,[45],> 100 µM
same,TGI,[46],> 100 µM
same,TGI,[47],> 100 µM
same,TGI,[48],> 100 µM
same,TGI,[49],> 100 µM
O=C1NC(=O)N(S(=O)(=O)c2cc(C(=O)Nc3ccc(Cl)cc3)c(Cl)cc2S)S(=O)(=O)N1,GI50,[1],17.9 µM
same,TGI,[1],33.7 µM
same,GI50,[2],15.5 µM
same,TGI,[2],30.1 µM
same,GI50,[3],25.1 µM
same,TGI,[3],55.6 µM
same,GI50,[4],21.6 µM
same,TGI,[4],43.7 µM
same,GI50,[5],20.5 µM
same,TGI,[5],45.7 µM
same,GI50,[6],19 µM
same,TGI,[6],35.4 µM
same,GI50,[50],8.53 µM
same,TGI,[50],26.9 µM
same,GI50,[7],11 µM
same,TGI,[7],> 100 µM
same,GI50,[8],16.5 µM
same,TGI,[8],31.2 µM
same,GI50,[9],18.3 µM
same,TGI,[9],38.9 µM
same,GI50,[10],12.9 µM
same,TGI,[10],30 µM
same,GI50,[11],19.4 µM
same,TGI,[11],35.4 µM
same,GI50,[12],18.9 µM
same,TGI,[12],36.5 µM
same,GI50,[13],18.3 µM
same,TGI,[13],37.4 µM
same,GI50,[14],12.9 µM
same,TGI,[14],44.3 µM
same,GI50,[15],21.1 µM
same,TGI,[15],55.4 µM
same,GI50,[16],23.8 µM
same,TGI,[16],> 100 µM
same,GI50,[51],24.1 µM
same,TGI,[51],51.6 µM
same,GI50,[52],12.3 µM
same,TGI,[52],34.1 µM
same,GI50,[17],18.6 µM
same,TGI,[17],34.8 µM
same,GI50,[53],17 µM
same,TGI,[53],34.3 µM
same,GI50,[18],16.2 µM
same,TGI,[18],31.6 µM
same,GI50,[20],23.6 µM
same,TGI,[20],91.8 µM
same,GI50,[21],25.2 µM
same,TGI,[21],74.5 µM
same,GI50,[22],18.5 µM
same,TGI,[22],34.3 µM
same,GI50,[54],19.4 µM
same,TGI,[54],47.6 µM
same,GI50,[23],22.2 µM
same,TGI,[23],56.1 µM
same,GI50,[24],18.5 µM
same,TGI,[24],34.3 µM
same,GI50,[25],16.3 µM
same,TGI,[25],40.3 µM
same,GI50,[26],21.1 µM
same,TGI,[26],50.6 µM
same,GI50,[27],28.1 µM
same,TGI,[27],85.6 µM
same,GI50,[28],19.2 µM
same,TGI,[28],36.1 µM
same,GI50,[29],24.2 µM
same,TGI,[29],> 100 µM
same,GI50,[30],19.4 µM
same,TGI,[30],35.3 µM
same,GI50,[31],24.8 µM
same,TGI,[31],64.4 µM
same,GI50,[32],17.8 µM
same,TGI,[32],52 µM
same,GI50,[55],17.7 µM
same,TGI,[55],55.7 µM
same,GI50,[33],0.67 µM
same,TGI,[33],18.2 µM
same,GI50,[34],16.9 µM
same,TGI,[34],46.6 µM
same,GI50,[35],23.4 µM
same,TGI,[35],43.1 µM
same,GI50,[36],19.7 µM
same,TGI,[36],39.3 µM
same,GI50,[37],27.7 µM
same,TGI,[37],66.1 µM
same,GI50,[56],14.6 µM
same,TGI,[56],> 100 µM
same,GI50,[38],13.1 µM
same,TGI,[38],28.5 µM
same,GI50,[57],21.9 µM
same,TGI,[57],50.2 µM
same,GI50,[41],38.9 µM
same,TGI,[41],> 100 µM
same,GI50,[43],20.4 µM
same,TGI,[43],44.5 µM
same,GI50,[44],6.65 µM
same,TGI,[44],55.7 µM
same,GI50,[45],23.8 µM
same,TGI,[45],45.5 µM
same,GI50,[46],15.1 µM
same,TGI,[46],34.3 µM
same,GI50,[47],17.5 µM
same,TGI,[47],37.1 µM
same,GI50,[48],6.67 µM
same,TGI,[48],23.6 µM
same,GI50,[49],19.6 µM
same,TGI,[49],46.5 µM
